Consider one compound from patent US20040180817A1, “Neuropathologies associated with expression of tnf-$g (a)” (priority 2001, published 2004).

Each structure is given as a SMILES string. “Also recorded” adds a separate entry of the source.

In assay [1] the test system is rrTNF-α-induced reduction in striatal rCBV. The experiment in a line: Effect of ET receptor antagonist on rrTNF-α-induced acute rCBV reduction (MRI). The class given is in vivo, rat. The following applies: 5 mg/kg i.v. 10 min prior to 1.5 μg intrastriatal rrTNF-α; 1.5 h. The protocol:
(§1) Adult male Wistar rats (Harlan-Olac, UK) were anaesthetised with fentanyl/fluanisone and midazolam (0.68 ml/kg of each). Using a 50 μm-tipped glass pipette, 1 μl rat recombinant TNF-α (NIBSC, Potters Bar, UK) solution was injected stereotaxically 1 mm anterior and 3 mm lateral to Bregma, at a depth of 4 mm into the left striatum. Animals were injected with either 0.3 μg/μl or 1.5 μg/μl of TNF-A, each in 0.1% BSA in low-endotoxin saline, or with vehicle solution only. Animals were positioned in the MRI probe (3.4 cm i.d. Alderman-Grant resonator) using a bite-bar. During MRI, anaesthesia was maintained with 0.8-1.2% halothane in 50% N2O/50% O2, ECG was monitored non-invasively and body temperature was maintained at […]. All procedures were approved by the United Kingdom Home Office.
(§2) Magnetic resonance images were acquired using a 300 MHz Varian Inova spectrometer (Varian, Palo Alto, Calif.). […] Diffusion gradients were applied separately along three orthogonal axes and apparent diffusion coefficient (ADC) “trace” maps were calculated^40. […]
(§3) Regions of Interest (ROI) encompassing the striatum were defined on T2-weighted images in each hemisphere, and applied to all images or calculated data maps for quantitation. For the rCBV maps and T2-weighted images the data are expressed as a ratio of injected/non-injected striatal values. […]

Assay [2] relates to rat brain striatum (tissue water diffusion). The experiment in a line: Diffusion weighted MRI: apparent diffusion coefficient (ADC) of tissue water in striatum. The format is in vivo. The following applies: 24 h. The protocol: as §1, §2, §3
Assay [3] deals with blood-cerebrospinal fluid barrier and blood-brain barrier. Briefly: Contrast-enhanced T1-weighted MRI of B-CSF-B / BBB permeability. The format is in vivo, rat. The protocol: as §1
Magnetic resonance images were acquired using a 300 MHz Varian Inova spectrometer (Varian, Palo Alto, Calif.). Anatomical images were acquired using a T2-weighted sequence (repetition time, TR, 3 sec; echo time, TE, 80 msec). […] Diffusion gradients were applied separately along three orthogonal axes and apparent diffusion coefficient (ADC) “trace” maps were calculated^40. […]

As to `COc1cccc(Oc2c(NS(=O)(=O)c3ccc(C(C)(C)C)cc3)ncnc2OCCO)c1` [Ro 46-2005], in assay [1], the “effect on rrTNF-α-induced reduction in striatal rCBV” value is “No significant differences; also recorded: eliminated”. Besides, the “Apparent Diffusion Coefficient, Right (control) striatum” value in assay [2] (Ro 46-2005 i.v. pre-treatment + 1.5 μg rrTNF-α intrastriatal (left)) is listed as 7.23 ± 0.17 ×10^−4 mm^2/sec. In assay [2] (pre-treatment before 1.5 μg rrTNF-α), the “effect of pre-treatment on TNF-α-induced reduction in ADC” value was “not affected”. The “BBB breakdown: increase in signal intensity of injected striatum” value in assay [3] (Ro 46-2005 pre-treatment + 1.5 g TNF-α (so in the source), 24 h) was 10.3±2.7%. Also, in assay [3] (pre-treatment before TNF-α, 1.5 h), the “effect of pre-treatment on TNF-α-induced B-CSF-B breakdown” value is recorded as “did not significantly alter”.
